{"source": "patent US20030138946A1", "key": {"[1]": {"system": "CD8^+ 2C lymph node cells", "test": "IL-2 production by CD8+ 2C lymph node cells (CTLL indicator line 3HTdR)", "assay_type": "cell-based, mouse", "conditions": "peptide 10 μM", "experimental": "(§1) Using a standard tissue culture system (Cai, Z. and Sprent, J. (1994) J. Exp. Med. 179: 2005-2015), doses of 5×10^4 purified CD8^+ 2C lymph node (LN) cells were cultured at 37° C. with doses of 3×10^5 transfected fly cells ±peptides (10 μM final concentration). Peptides were synthesized by R. W. Johnson Pharmaceutical Research Institute (Sykulev, et al. (1994) Immunity 1: 15-22. Proliferative responses were measured by adding ^3HTdR (1 μCi/well) 8 hours prior to harvest. IL-2 production was measured by removing supernatants from the cultures at 48 hours and adding 50 μl supernatant to an IL-2 responsive indicator cell line (CTLL); proliferation of the indicator line was measured by addition of ^3HTdR. The data shown in Table 2 are the means of triplicate cultures. The transfected Drosophila S2 cells die rapidly at 37° C. and fail to incorporate ^3HTdR at this temperature."}, "soluble 2C TCR molecules": {"system": "soluble 2C TCR molecules", "conditions": "peptide complexed to L^d; association constant; cited from earlier work"}, "CD8^+ 2C cells": {"system": "CD8^+ 2C cells", "test": "CD69 and CD25 expression on CD8+ 2C cells stimulated with transfected Drosophila cells plus peptide", "assay_type": "cell-based, mouse", "conditions": "Drosophila cells expressing L^d alone; peptide 10 μM, 12 hours", "experimental": "TCR stimulation elicited a complex pattern of intracellular events which lead to early up-regulation of CD69 and CD25 (IL-2 receptor or IL-2R) on the cell surface. These changes are apparent within a few hours of stimulation and are followed by cytokine synthesis and cell proliferation. Drosophila cells were transfected with genes for L^d, L^d and B7.1 (L^d.B7), L^d and ICAM-1 (L^d.ICAM) or L^d, B7.1 and ICAM-1 (L^d.B7.1CAM). […] Purified CD8^+ 2C cells were incubated with various Drosophila cells plus a peptide (either p2Ca or QL9, 10 μM) in bulk (2 ml) culture for 12 hours and then stained for CD69 or CD25. Either p2Ca or QL9 presented by Drosophila cells transfected with L^d.B7, L^d.ICAM or L^d.B7.1CAM were effective in stimulating the up-regulation of CD69 and CD25."}, "[2]": {"system": "RMA.S cells (target cells) expressing L^d", "assay_type": "cell-based, mouse"}, "[3]": {"system": "CD8^+ 2C lymph node cells", "test": "Primary proliferative response of CD8+ 2C lymph node cells to peptides presented by transfected fly cells (3HTdR)", "assay_type": "cell-based, mouse", "conditions": "peptide 10 μM", "experimental": "as §1"}}}
{"substance": "Gln-Leu-Ser-Pro-Phe-Pro-Phe-Asp-Leu [QL9]", "values": [{"measurement": "IL-2 Production (Day 2) ^3HTdR incorporation, fly cells expressing L^d", "setting": "[1]; APC L^d", "result": 0.1, "unit": "cpm × 10^3"}, {"measurement": "IL-2 Production (Day 2) ^3HTdR incorporation, fly cells expressing L^d + B7.1", "setting": "[1]; APC L^d + B7.1", "result": 0.4, "unit": "cpm × 10^3"}, {"measurement": "IL-2 Production (Day 2) ^3HTdR incorporation, fly cells expressing L^d + B7.1 + ICAM-1", "setting": "[1]; APC L^d + B7.1 + ICAM-1", "result": 158.6, "unit": "cpm × 10^3"}, {"measurement": "IL-2 Production (Day 2) ^3HTdR incorporation, fly cells expressing L^d + ICAM-1", "setting": "[1]; APC L^d + ICAM-1", "result": 0.2, "unit": "cpm × 10^3"}, {"measurement": "IL-2 Production (Day 2) ^3HTdR incorporation, L^d + B7.1 combined with L^d + ICAM-1", "setting": "[1]; mixture of two APC lines", "result": 0.5, "unit": "cpm × 10^3"}, {"measurement": "affinity for 2C TCR molecules", "setting": "soluble 2C TCR molecules", "result": "2e+07", "unit": "M⁻¹"}, {"measurement": "induction of CD69 and CD25 expression", "setting": "CD8^+ 2C cells", "result": "low, but significant"}, {"measurement": "lysis of target cells in the presence of peptide", "setting": "[2]", "result": "observed"}, {"measurement": "Proliferation (Day 3) ^3HTdR incorporation, fly cells expressing L^d", "setting": "[3]; APC L^d", "result": 0.2, "unit": "cpm × 10^3"}, {"measurement": "Proliferation (Day 3) ^3HTdR incorporation, fly cells expressing L^d + B7.1", "setting": "[3]; APC L^d + B7.1", "result": 60.9, "unit": "cpm × 10^3"}, {"measurement": "Proliferation (Day 3) ^3HTdR incorporation, fly cells expressing L^d + B7.1 + ICAM-1", "setting": "[3]; APC L^d + B7.1 + ICAM-1", "result": 263.7, "unit": "cpm × 10^3"}, {"measurement": "Proliferation (Day 3) ^3HTdR incorporation, fly cells expressing L^d + ICAM-1", "setting": "[3]; APC L^d + ICAM-1", "result": 73.9, "unit": "cpm × 10^3"}, {"measurement": "Proliferation (Day 3) ^3HTdR incorporation, L^d + B7.1 combined with L^d + ICAM-1", "setting": "[3]; mixture of two APC lines", "result": 132.9, "unit": "cpm × 10^3"}]}
